Laboratory results: patent US11155517B2, “4-substituted phenylamine derivatives and their use to protect crops by fighting undesired phytopathogenic micoorganisms” (PI INDUSTRIES LTD., priority 2016, dated 2021)

What was measured:
Pyricularia oryzae = test: microbe, parasite or virus in culture; assay type: cell-based; settings: 168 h, read-out: % control compared to the untreated check (radial growth)
Rhizoctonia solani = Rhizoctonia solani (rice sheath blight/potato black scurf) in vitro test, radial growth on Potato Dextrose Agar; assay type: cell-based; settings: 168 h, 300 ppm, seven days, 25° C., read-out: % control compared to the untreated check (radial growth)
Alternaria solani [1] = test: Alternaria solani (early blight of tomato/potato) in vitro test, radial growth on Potato Dextrose Agar; assay type: cell-based; settings: 168 h, 300 ppm, seven days, 25° C., read-out: % control compared to the untreated check (radial growth)
Botrytis cinera = test: Greenhouse Botrytis cinera test in tomato, preventive; assay type: in vivo; settings: 24 h, plants sprayed one day before inoculation, read-out: Efficacy (% control), disease severity vs untreated check
Alternaria solani [2] = test: Greenhouse Alternaria solani test in tomato, preventive; assay type: in vivo; settings: 24 h, tomato plants sprayed one day before inoculation, read-out: Efficacy (% control), disease severity vs untreated check
Procedure: Compounds were dissolved in 2% DMSO/Acetone & then mixed with water to calibrated spray volume of 50 ml. This 50 ml spray solution was poured into the spray bottles for further applications. To test the preventive activity of compounds, healthy young Tomato plants raised in the greenhouse were sprayed with active compound preparation at the stated application rates inside the spray cabinets using hallowcone nozzles. One day after treatment, the plants were inoculated with spore suspension (2% Malt) containing 0.24×10^6 Alternaria solani inoculum. The inoculated plants were then kept in greenhouse chamber at 22-24° C. temperature and 90-95% relative humidity for disease expression. […] Efficacy (% control) of the compounds was calculated by comparing the disease rating in the treatment with untreated control. The sprayed plants were also assessed for compound's phytotoxic effects by recording symptoms like necrosis, chlorosis and stunting.

Botrytis cinerea = Botrytis cinerea (gray mold) in vitro test, radial growth on Potato Dextrose Agar; assay type: cell-based; settings: 168 h, 300 ppm, seven days, 22° C., read-out: % (control) compared to the untreated check (radial growth)
Colletotrichum capsici = Colletotrichum capsici (anthracnose) in vitro test, radial growth on Potato Dextrose Agar; assay type: cell-based; settings: Colletotrichum truncatum, 168 h; 300 ppm; seven days, 25° C.; read-out: % control compared to the untreated check (radial growth)
Septoria lycopersici = Septoria lycopersici (leaf spot of tomato) in vitro test, radial growth on Potato Dextrose Agar; assay type: cell-based; settings: 168 h, seven days, 25° C., read-out: % control compared to the untreated check (radial growth)
Fusarium culmorum = Fusarium culmorum (foot rot of cereals) in vitro test, radial growth on Potato Dextrose Agar; assay type: cell-based; settings: Fusarium culmorum, 168 h, read-out: % control compared to the untreated check (radial growth)

Row | SMILES | inhibition of growth at 300 ppm (Pyricularia oryzae) [%] | inhibition of growth at 300 ppm (Rhizoctonia solani) [%] | inhibition of growth at 300 ppm (Alternaria solani [1]) [%] | pest or weed control at 500 ppm (Botrytis cinera) [%] | pest or weed control at 500 ppm (Alternaria solani [2]) [%] | inhibition of growth at 300 ppm (Botrytis cinerea) [%] | inhibition of growth at 300 ppm (Colletotrichum capsici) [%] | inhibition of growth at 300 ppm (Septoria lycopersici) [%] | inhibition of growth at 300 ppm (Fusarium culmorum) [%]
1 | CCN(C)C=Nc1cc(C)c(C(OC)c2ccccc2)cc1C (stereo not drawn) [Compound 2, N-ethyl-N′-(4-(methoxy(phenyl)methyl)-2,5-dimethylphenyl)-N-methylformimidamide] | > 75 | > 80 | > 75 | 70 to 100 | 70 to 100 | – | – | – | –
2 | CCN(C)C=Nc1cc(C)c(Cc2ccc(SC)cc2)cc1C [Compound 8, N′-(2,5-dimethyl-4-(4-(methylthio)benzyl)phenyl)-N-ethyl-N-methylformimidamide] | > 75 | > 80 | > 75 | – | 70 to 100 | > 80 | > 80 | > 70 | –
3 | CCN(C)C=Nc1cc(C)c(Cc2ccc(C)cc2)cc1C [Compound 9, N′-(2,5-dimethyl-4-(4-methylbenzyl)phenyl)-N-ethyl-N-methylformimidamide] | > 75 | > 80 | > 75 | 70 to 100 | 70 to 100 | > 80 | > 80 | > 70 | 75
4 | CCN(C)C=Nc1cc(C)c(Cc2ccccc2S(C)(=O)=O)cc1C [Compound 25, N′-(2,5-dimethyl-4-(2-(methylsulfonyl)benzyl)phenyl)-N-ethyl-N-methylformimidamide] | > 75 | > 80 | > 75 | 70 to 100 | 70 to 100 | – | > 80 | > 70 | –
5 | CCN(C)C=Nc1cc(C)c(/C(=N\C)c2ccccc2)cc1C [Compound 31, N′-(2,5-dimethyl-4-((Z)-(methylimino)(phenyl)methyl)phenyl)-N-ethyl-N-methylformimidamide] | > 75 | > 80 | > 75 | 70 to 100 | 70 to 100 | – | – | > 70 | 75
6 | Cc1cc(N=CN2CCOCC2)c(C)cc1Cc1cccc(Br)c1F [Compound 36, N-(4-(3-bromo-2-fluorobenzyl)-2,5-dimethylphenyl)-1-morpholinomethanimine] | > 75 | > 80 | – | – | 70 to 100 | – | – | – | –
7 | Cc1cc(N=CN2CCOCC2)c(Cl)cc1Cc1ccccc1Cl [Compound 40, N-(2-chloro-4-(2-chlorobenzyl)-5-methylphenyl)-1-morpholinomethanimine] | – | – | – | 70 to 100 | 70 to 100 | > 80 | – | – | –
8 | CCN(C)C=Nc1cc(C)c(Cc2ccccc2[N+](=O)[O-])cc1C [Compound 50, N′-(2,5-dimethyl-4-(2-nitrobenzyl)phenyl)-N-ethyl-N-methylformimidamide] | > 75 | > 80 | > 75 | – | 70 to 100 | > 80 | > 80 | > 70 | 75
9 | CCN(C)C=Nc1cc(C)c(Cc2ccc(C#N)cc2)cc1Cl [Compound 68, N′-(2-chloro-4-(4-cyanobenzyl)-5-methylphenyl)-N-ethyl-N-methylformimidamide] | > 75 | > 80 | > 75 | – | 70 to 100 | – | – | > 70 | 75
10 | CCN(C)C=Nc1cc(C)c(Cc2cccc([N+](=O)[O-])c2)cc1Cl [Compound 71, N′-(2-chloro-5-methyl-4-(3-nitrobenzyl)phenyl)-N-ethyl-N-methylformimidamide] | > 75 | > 80 | > 75 | – | 70 to 100 | > 80 | > 80 | > 70 | 75
11 | CCN(C)C=Nc1cc(C)c(Cc2ccc(C(F)(F)F)cc2)cc1C [Compound 97, N′-(2,5-dimethyl-4-(4-(trifluoromethyl)benzyl)phenyl)-N-ethyl-N-methylformimidamide] | – | – | – | – | 70 to 100 | – | – | – | –
12 | CCN(C)C=Nc1cc(C)c(Cc2ccccc2C#N)cc1C [Compound 115, N′-(4-(2-cyanobenzyl)-2,5-dimethylphenyl)-N-ethyl-N-methylformimidamide] | > 75 | > 80 | > 75 | – | 70 to 100 | – | > 80 | – | –
13 | CCN(C)C=Nc1cc(C)c(Cc2cccc(Cl)c2Cl)cc1Cl [Compound 128, N′-(2-chloro-4-(2,3-dichlorobenzyl)-5-methylphenyl)-N-ethyl-N-methylformimidamide] | > 75 | > 80 | > 75 | – | 70 to 100 | > 80 | > 80 | > 70 | –
14 | CCN(C)C=Nc1cc(C)c(Cc2ccc(F)cc2F)cc1C [Compound 161, N′-(4-(2,4-difluorobenzyl)-2,5-dimethylphenyl)-N-ethyl-N-methylformimidamide] | > 75 | > 80 | > 75 | – | 70 to 100 | > 80 | > 80 | > 70 | 75
15 | CCN(C)C=Nc1cc(F)c(Cc2ccccc2Cl)cc1C [Compound 174, N′-(4-(2-chlorobenzyl)-5-fluoro-2-methylphenyl)-N-ethyl-N-methylformimidamide] | > 75 | > 80 | > 75 | – | 70 to 100 | > 80 | > 80 | > 70 | 75
16 | CCN(C)C=Nc1cc(F)c(Cc2ccc(C)cc2)cc1C [Compound 175, N-ethyl-N′-(5-fluoro-2-methyl-4-(4-methylbenzyl)phenyl)-N-methylformimidamide] | > 75 | > 80 | > 75 | – | 70 to 100 | > 80 | > 80 | > 70 | 75
17 | CCN(C)C=Nc1cc(C)c(Cc2cc(F)cc(Cl)c2)cc1Cl [Compound 176, N′-(2-chloro-4-(3-chloro-5-fluorobenzyl)-5-methylphenyl)-N-ethyl-N-methylformimidamide] | > 75 | > 80 | > 75 | – | 70 to 100 | > 80 | > 80 | > 70 | 75
18 | CCN(C)C=Nc1cc(C)c(Cc2cc(F)ccc2Cl)cc1Cl [Compound 178, N′-(2-chloro-4-(2-chloro-5-fluorobenzyl)-5-methylphenyl)-N-ethyl-N-methylformimidamide] | > 75 | > 80 | > 75 | – | 70 to 100 | > 80 | > 80 | > 70 | 75
19 | CCN(C)C=Nc1cc(C)c(Cc2ccc(Cl)cc2Cl)cc1Cl [Compound 179, N′-(2-chloro-4-(2,4-dichlorobenzyl)-5-methylphenyl)-N-ethyl-N-methylformimidamide] | > 75 | > 80 | > 75 | 70 to 100 | 70 to 100 | > 80 | > 80 | – | 75
20 | CCN(C)C=Nc1cc(C)c(Cc2ccc(F)cc2F)cc1Cl [Compound 180, N′-(2-chloro-4-(2,4-difluorobenzyl)-5-methylphenyl)-N-ethyl-N-methylformimidamide] | > 75 | > 80 | > 75 | 70 to 100 | 70 to 100 | > 80 | > 80 | – | 75
